As a reminder, the IC50 is the concentration that gives 50% inhibition.

Each structure is given as a SMILES string.

Results on ten compounds are retold here after ChEMBL document CHEMBL1143521, “Synthesis and antitumor activity of 7-ethyl-9-alkyl derivatives of camptothecin” (Bioorg Med Chem Lett, 2005).

One data set has as its system HCT-116. In words: Inhibitory concentration against human HCT116 colon cancer cell line. It is filed as functional, cell-based.
The subject of another data set is Bel-7402. Put plainly: Inhibitory concentration against human Bel-7402 liver cancer cell line. It is filed as functional, cell-based.
The test system of data set [1] is Mus musculus. Put plainly: Percent change in body-weight of mouse tumor sarcoma-180 model after intraperitoneal administration of 2.5 mg/kg dose. It is filed as functional.
Data set [2] is described as follows: Lethal toxicity against mouse tumor sarcoma-180 model after intraperitoneal administration of 2.5 mg/kg dose expressed as number of deaths out of 10 mice. It is filed as organism-based. Set-up: dose 2.5 mg/kg, route intraperitoneal. Conditions: in vivo, ip.
In data set [3] the test system is Mus musculus. In words: Average tumor weight in mouse tumor sarcoma-180 model after intraperitoneal administration of 2.5 mg/kg dose. It is filed as functional.
Data set [4] deals with Mus musculus. In words: Percent tumor-weight inhibition in mouse tumor sarcoma-180 model after intraperitoneal administration of 2.5 mg/kg dose in comparison with control mice. It is filed as functional.
Data set [5] deals with Mus musculus. In words: Percent tumor-weight inhibition in mouse tumor sarcoma-180 model after intraperitoneal administration of 5 mg/kg dose in comparison with control mice. It is filed as functional.
Data set [6] concerns Mus musculus. In words: Percent change in body-weight of mouse tumor sarcoma-180 model after intraperitoneal administration of 5 mg/kg dose. It is filed as functional.
For data set [7], the system named is Mus musculus. Put plainly: Average tumor weight in mouse tumor sarcoma-180 model after intraperitoneal administration of 5 mg/kg dose. It is filed as functional.
Data set [8] can be described thus: Lethal toxicity against mouse tumor sarcoma-180 model after intraperitoneal administration of 5 mg/kg dose expressed as number of deaths out of 10 mice. It is filed as organism-based. Set-up: dose 5 mg/kg, route intraperitoneal. Conditions: in vivo, ip.
A short description of data set [9]: Lethal toxicity against mouse tumor sarcoma-180 model after intraperitoneal administration of 75 mg/kg dose expressed as number of deaths out of […]. It is filed as organism-based. Set-up: dose 75 mg/kg, route intraperitoneal. Particulars: in vivo, ip.
The subject of data set [10] is Mus musculus. In words: Percent tumor-weight inhibition in mouse tumor sarcoma-180 model after intraperitoneal administration of 75 mg/kg dose in comparison with control mice. It is filed as functional.
Data set [11] has as its system Mus musculus. Put plainly: Average tumor weight in mouse tumor sarcoma-180 model after intraperitoneal administration of 75 mg/kg dose. It is filed as functional.
Data set [12] relates to Mus musculus. Put plainly: Percent change in body-weight of mouse tumor sarcoma-180 model after intraperitoneal administration of 75 mg/kg dose. It is filed as functional.

For the compound `CCCc1c(O)ccc2nc3c(c(CC)c12)Cn1c-3cc2c(c1=O)COC(=O)[C@]2(O)CC`, the IC50 in the data set on HCT-116 was determined as 12 nM; in the data set with Bel-7402 it was 3010 nM.
The like results for `CCc1c(OC)ccc2nc3c(c(CC)c12)Cn1c-3cc2c(c1=O)COC(=O)[C@]2(O)CC` were, in that order, 61 nM and 2400 nM.
Turning to `C=CCc1c(O)ccc2nc3c(c(CC)c12)Cn1c-3cc2c(c1=O)COC(=O)[C@]2(O)CC`, the BWC in the data set on Mus musculus [1] was 9%. The results for the concentration for half-maximal inhibition (IC50) in the data set with HCT-116 and in the data set on Bel-7402 were 14 nM and 2750 nM, respectively. Besides, the Lethal toxicity in data set [2] was determined as 0. In addition, in the data set on Mus musculus [3], the TW came out at 0.62. This compound also showed a TWI in the data set on Mus musculus [4] of 81.2%.
On to `CCc1c(O)ccc2nc3c(c(CC)c12)Cn1c-3cc2c(c1=O)COC(=O)[C@]2(O)CC`, for which the results for the IC50 with HCT-116 and with Bel-7402 were 23 nM and 2010 nM, respectively.
Take `CCCc1c(OC)ccc2nc3c(c(CC)c12)Cn1c-3cc2c(c1=O)COC(=O)[C@]2(O)CC`: the IC50 came to 153 nM in the data set with HCT-116 and 3840 nM in the data set with Bel-7402.
Turning to `C=CCc1c(OC)ccc2nc3c(c(CC)c12)Cn1c-3cc2c(c1=O)COC(=O)[C@]2(O)CC`, the results for the IC50 in the data set with HCT-116 and with Bel-7402 were 68 nM and 2160 nM, respectively.
For the compound `CCc1c2c(nc3ccc(O)cc13)-c1cc3c(c(=O)n1C2)COC(=O)[C@]3(O)CC` [7-ETHYL-10-HYDROXYCAMPTOTHECIN], the values for the IC50 in the data set on HCT-116 and in the data set on Bel-7402 were 7 nM and 3190 nM, respectively. In addition, the TWI in the data set on Mus musculus [5] was 41.5%. The same compound had a BWC in the data set with Mus musculus [6] of 45%. In the data set with Mus musculus [7], this compound displayed a TW of 1.93. In [8], the Lethal toxicity was found to be 0.
For the compound `O=c1[nH]cc(F)c(=O)[nH]1` [FLUOROURACIL], in [9], the Lethal toxicity was determined as 0. The same compound displayed a TWI in the data set on Mus musculus [10] of 53.9%. The same compound gave a TW with Mus musculus [11] of 1.52. This compound also had a BWC with Mus musculus [12] of 74%.
For `CC[C@@]1(O)C(=O)OCc2c1cc1n(c2=O)Cc2cc3cc(O)ccc3nc2-1` [HYDROXYCAMPTOTHECIN], the IC50 came out at 148 nM in the data set on HCT-116 and 2470 nM in the data set with Bel-7402.
`CC[C@@]1(O)C(=O)OCc2c1cc1n(c2=O)Cc2cc3c(CN(C)C)c(O)ccc3nc2-1` [TOPOTECAN]: the IC50 with HCT-116 stood at 100 nM; in the data set with Bel-7402, 3980 nM.
